For this assay, the system named is IRE1-XBP1s. Description: IRE1-XBP1s activation Assay (XBP1-RLuc splicing reporter, HEK293 T-REx cells). Format: cell-based. The conditions noted are these: compound 10 μM, 18 h, HEK293 T-REx cells stably expressing XBP1-RLuc splicing reporter, relative to thapsigargin (Tg) 500 nM, read-out: Activity (IRE1-XBP1s Activation; luminescence as percentage signal relative to thapsigargin). The method, then: IRE1-XBP1s activation Assay: HEK293 T-REx cells stably expressing the XBP1-RLuc splicing reporter were treated with an IRE1—XBP1s activator provided herein (10 μM) in the presence or absence of the IRE1 active site inhibitor 4 μ8C (32 μM) for 18 h. Luminescence was shown as the percentage signal relative to thapsigargin (Tg) (500 nM, 18 h).

This note sets out measurements from patent US20240092757A1, “HETEROARYL DIAMIDE IRE1/XBP1s ACTIVATORS” (Protego Biopharma, Inc., priority 2021, published 2024).

Counter-ions that a name gives are not always drawn.

Turning to `COc1ccc(OCCC(=O)Nc2cnn(CC(=O)N(C)CCOc3ccc(C)cc3)c2)cc1` [Compound 10], the activation at 10 µM is no less than 50%.

For the molecule `Cc1ccc(OCCN(C)C(=O)Cn2cnc(NC(=O)CCOc3ccc(F)cc3)c2)cc1` [Compound 16], the activation at 10 µM was no less than 50%.

Take `Cc1ccc(OCCN(C)C(=O)Cn2cc(NC(=O)CCc3ccccc3)cn2)cc1` [Compound 25, N-(1-(2-(Methyl(2-(p-tolyloxy)ethyl)amino)-2-oxoethyl)-1H -pyrazol-4-yl)-3-phenylpropanamide hydrochloride]: the activation at 10 µM was 30 to 50%.

As for `Cc1ccc(OCCN(C)C(=O)Cn2cc(NC(=O)Cc3ccccc3)cn2)cc1` [Compound 26, N-Methyl-2-(4-(2-phenylacetamido)-1H-pyrazol-1-yl)-N-(2-(p-tolyloxy)ethypacetamide hydrochloride], the activation at 10 µM is less than 30%.

As to `CN(CCc1ccccc1)C(=O)Cn1cc(NC(=O)CCOc2ccccc2)cn1` [Compound 27, N-(1-(2-(methyl(phenethyl)amino)-2-oxoethyl)-1H-pyrazol-4-yl) -3-phenoxypropanamide hydrochloride], the activation at 10 µM was less than 30%.

`CN(C(=O)Cn1cc(NC(=O)CCOc2ccccc2)cn1)c1ccccc1` [Compound 28, N-(1-(2-(Methyl(phenyl)amino)-2-oxoethyl)-1H-pyrazol-4-yl)-3-phenoxypropanamide hydrochloride]: the activation at 10 µM was less than 30%.

With `CN(CCOc1ccccc1)C(=O)Cn1cc(NC(=O)CCOc2ccccc2)cn1` [Compound 29, N-(1-(2-(Methyl(2-phenoxyethyl)amino)-2-oxoethyl)-1H-pyrazol-4-yl)-3-phenoxypropanamide hydrochloride], the activation at 10 µM is less than 30%.

In the case of `CN(CCOc1ccc(C(F)(F)F)cc1)C(=O)Cn1cc(NC(=O)CCOc2ccccc2)cn1` [Compound 30, N-(1-(2-(Methyl(2-(4-(trifluoromethyl)phenoxy)ethyl)amino)-2-oxoethyl)-1H-pyrazol-4-yl)-3-phenoxypropanamide hydrochloride], the activation at 10 µM was no less than 50%.

As to `CN(CCCc1ccc(C(F)(F)F)cc1)C(=O)Cn1cc(NC(=O)CCOc2ccccc2)cn1` [Compound 31], the activation at 10 µM was less than 30%.

As to `Cc1ccc(OCCN(C)C(=O)Cn2cc(NC(=O)CCOc3ccccc3F)cn2)cc1` [Compound 34], the activation at 10 µM was no less than 50%.

Turning to `Cc1ccc(OCCN(C)C(=O)Cn2cc(NC(=O)CCOc3ccc(CO)cc3)cn2)cc1` [Compound 35], the activation at 10 µM was no less than 50%.

For the molecule `Cc1ccc(OCCN(C)C(=O)Cn2cc(NC(=O)CCOc3cccc(F)c3)cn2)cc1` [Compound 36], the activation at 10 µM was no less than 50%.

For `Cc1ccc(OCCN(C)C(=O)Cn2cc(NC(=O)CCOc3ccc(N)cc3)cn2)cc1` [Compound 37], the activation at 10 µM is no less than 50%.

On to `CN(CCOc1ccccn1)C(=O)Cn1cc(NC(=O)CCOc2ccccc2)cn1` [Compound 38], for which the activation at 10 µM is less than 30%.

Turning to `CN(CCOc1ccc(C(F)(F)F)cn1)C(=O)Cn1cc(NC(=O)CCOc2ccccc2)cn1` [Compound 39], the activation at 10 µM is 30 to 50%.

As to `CN(CCOc1ccc(C2(C(F)(F)F)N=N2)cc1)C(=O)Cn1cc(NC(=O)CCOc2ccccc2)cn1` [Compound 40], the activation at 10 µM was less than 30%.

With `Cc1ccc(OCCNC(=O)Cn2cc(NC(=O)CCOc3ccccc3)cn2)cc1` [Compound 41], the activation at 10 µM is less than 30%.

With `COc1ccc(OCCNC(=O)Cn2cc(NC(=O)CCOc3ccccc3)cn2)cc1` [Compound 42], the activation at 10 µM is less than 30%.

For `Cc1ccc(CN(C)C(=O)Cn2cc(NC(=O)CCOc3ccccc3)cn2)cc1` [Compound 43], the activation at 10 µM was less than 30%.

On to `Cc1ccc(OCCN(C)C(=O)Cn2cc(NC(=O)COc3ccccc3)cn2)cc1` [Compound 44], for which the activation at 10 µM lay within 30 to 50%.

On to `Cc1ccc(OCCN(C)C(=O)Cn2cc(NC(=O)CCOc3ccc(Cl)cc3)cn2)cc1` [Compound 45], for which the activation at 10 µM was in the range of 30 to 50%.

In the case of `Cc1ccc(OCCN(C)C(=O)C(C)n2cc(NC(=O)CCOc3ccccc3)cn2)cc1` (centres unmarked) [Compound 46], the activation at 10 µM lay within 30 to 50%.

Consider `Cc1ccc(OCCN(C)C(=O)Cn2nc(C)c(NC(=O)CCOc3ccccc3)c2C)cc1` [Compound 47], for which the activation at 10 µM is less than 30%.

`Cc1ccc(OCCN(C)C(=O)Cn2ccc(NC(=O)CCOc3ccccc3)n2)cc1` [Compound 50, N-(1-(2-(methyl(2-(p-tolyloxy)ethyl)amino)-2-oxoethyl)-1H -pyrazol-3-yl)-3-phenoxypropanamide]: the activation at 10 µM is less than 30%.

For the molecule `COc1ccc(OCCC(=O)Nc2ccn(CC(=O)N(C)CCOc3ccc(C)cc3)n2)cc1` [Compound 51], the activation at 10 µM is less than 30%.

As to `Cc1ccc(OCCN(C)C(=O)Cn2cc(NC(=O)CCCc3ccccc3)cn2)cc1` [Compound 53], the activation at 10 µM was in the range of 30 to 50%.
